The values that follow come from patent US7838565B2, “Use of cyclohexenone derivatives in the manufacture of a medicament for treating diabetic complications” (Meiji Dairies Corporation, priority 2001, dated 2010).

Several values for one entry are separate records, joined by “and”; a condition that tells them apart may be missing. Equal values may be shown once.

Holding throughout (type): in vivo
In assay [1] the test system is model rat of diabetes (streptozotocin). The assay is described as follows: Test 3: bladder capacity and urination efficiency by intravesical pressure measurement under anesthesia, STZ diabetes model rat. Conditions: 8 mg/kg daily i.p. for 8 weeks, mean ± S.E. Here is the method:
(§1) To a rat, 65 mg/kg of streptozotocin (STZ) was administered intraperitoneally to prepare a model rat of diabetes. After intraperitoneal administration of Compound 4 obtained in Preparation Example 4 at a daily dose of 8 mg/kg for 8 weeks from two days after administration of STZ, the conduction rate of stimulus to sciatic nerve was measured by inserting a needle electrode for potential measurement into the vicinity of the right sciatic nerve, right Achilles tendon, and right plantar. Measurement was conducted three times and the mean of them was designated as the nerve stimulus conduction rate of the rat. Each group consisted of 10 to 12 rats.
In a similar manner to Test 1, Compound 4 obtained in Preparation Example 4 was administered intraperitoneally to a rat at a daily dose of 8 mg/kg for 8 weeks from two days after administration of STZ. The intravesical pressure of the rat was then measured under anesthesia, whereby bladder capacity and urination efficiency were determined.
The urination efficiency was determined from an excreted quantity/bladder capacity ratio.
Urination efficiency (%)=100×excreted quantity/bladder capacity

For assay [2] the test system is unchanged. Kind of assay: Test 1: neural stimulus conduction rate (sciatic nerve) in STZ diabetes model rat. Conditions: STZ (65 mg/kg i.p.) diabetes rat, 8 mg/kg daily i.p. for 8 weeks, mean ± S.E. Here is the method: as §1
Assay [3] has the same test system. Kind of assay: Test 2: maximum quantity excreted by single urination, metabolic cage, STZ diabetes model rat. The settings on record: 8 mg/kg daily i.p. for 8 weeks, recorded for 24 hours in metabolic cage, mean ± S.E. Here is the method: as §1
In a similar manner to Test 1, Compound 4 obtained in Preparation Example 4 was administered intraperitoneally to a rat at a daily dose of 8 mg/kg day for 8 weeks from two days after administration of STZ. Its urination pattern such as urination frequency and urination amount was then recorded for 24 hours at 2.5-min intervals by using a metabolic cage.

Regarding `CC1=C(CCCCCCCCCCCCCCCO)C(C)(C)CCC1=O` [Compound 4, 3-(15-Hydroxypentadecyl)-2,4,4-trimethyl-2-cyclohexen1-one], in assay [1], the “Bladder capacity (urination-inducing)” value was found to be 0.54 ± 0.07 mL and the “Urination efficiency (100×excreted quantity/bladder capacity)” value is recorded as 75.0±6.1%. In addition, the “Conduction rate of stimulus to nerve” value in assay [2] was 45.5 m/sec and 45.5 ± 1.2 m/sec. Besides, the “Maximum amount excreted by single urination” value in assay [3] came out at 3.71 ± 0.26 mL.
